# Key:
# MT4 [1] = test: Cytotoxic concentration required to reduce viability of mock-infected MT-4 cells by 50%; format: functional; conditions: Homo sapiens
# MT4 [2] = test: Effective concentration required to achieve 50% protection of MT-4 cells against the cytopathic effect of HIV-1; format: functional, cell-based; conditions: Homo sapiens
Structure (SMILES),CC50 (MT4 [1]) [µM],EC50 (MT4 [2]) [µM]
CCOCn1c(Cc2cccc(O)c2)c(CC)c(=O)[nH]c1=O,201,0.4
CCOCn1c(Sc2ccccc2)c(CC)c(=O)[nH]c1=O,197,0.018
CCOCn1c(C(OC(C)=O)c2cccc([N+](=O)[O-])c2)c(CC)c(=O)[nH]c1=O (stereo not drawn),283,29
CCOCn1c(Cc2cccc(N=[N+]=[N-])c2)c(CC)c(=O)[nH]c1=O,117,0.011
CCOCn1c(Cc2cccc(N)c2)c(CC)c(=O)[nH]c1=O,297,0.14
CCOCn1c(C(=O)c2cccc([N+](=O)[O-])c2)c(CC)c(=O)[nH]c1=O,232,0.21
Cc1c(Sc2ccccc2)n(COCCO)c(=O)[nH]c1=O [HEPT],740,–

# From ChEMBL document CHEMBL1126533, “Synthesis of a potential photoaffinity labelling reagent for HIV-1 reverse transcriptase” (Bioorg Med Chem Lett, 1993)
